Three compounds from US20240398889A1, “NUTRACEUTICAL COMPOSITION AND METHOD FOR THE PROTECTION OF HUMAN ARTERIAL ENDOTHELIAL CELLS FROM ENDOTHELIAL CELL DYSFUNCTION” (K.L.R.M., LLC, priority 2022, published 2024) can be followed below.

The test system of test [1] is human umbilical arterial endothelial cells (HUAEC). Description: cGMP expression by colorimetric ELISA in HUAEC. Type of test: cell-based. The note with it: 24 hours; for cGMP expression, change vs control: agent alone, IBMX 0.4 mM; for cGMP expression, change vs control / reduction of cGMP expression compared to COMP-4 incubation alone: L-NIL 2 μM; for reduction of cGMP expression compared to COMP-4 incubation alone: inhibitor co-incubated with COMP-4 0.69 mg/ml. The protocol: Cells were then scraped, homogenized by pipetting, and centrifuged at 1,000 g for 10 minutes. […] The enzymatic reaction product was determined by spectrophotometry at 405 nm absorbance and expressed as pmol/mg protein.
(ELISA stands for enzyme-linked immunosorbent assay.)

Test [2] shares this test system. Put plainly: Intracellular NO by Muse Nitric Oxide Kit (DAX-J2 Orange). Type of test: cell-based. To be noted: L-NAME added to COMP-4, 24 hours. The protocol: To corroborate the results obtained by flow cytometry, another system for detecting intracellular NO was used, the Muse® Nitric Oxide Kit (cat #MCH100112, Luminex, Austin, TX). HUAEC were seeded at 1.0×10^6 cells/ml in T25 flasks, treated with vehicle, COMP-4 with or without L-NAME, or LPS (positive control), and incubated for 24 hours. Cells were then suspended in assay buffer at 10^6 cells/ml. 100 μL of working solution consisting of the Muse Nitric Oxide Reagent (DAX-J2 Orange) was added to 10 μL of cells in suspension. Samples were incubated for 30 minutes in a 37° C. incubator with 5% CO2. After the incubation, 90 μL of the Muse 7-AAD working solution (dead cell marker) was added to each tube and incubated at room temperature for 5 min, protected from light. Intracellular NO was measured using the Guava® Muse Cell Analyzer, calibrated with negative and positive controls. Generated plots were divided into quadrants of nitric oxide positivity (+or −) and dead cells (+or −). From each plot, the lower-right quadrant of nitric oxide (+) and dead cell marker (−) was used to express intracellular NO results as the percent positive NO in live cells, which was compared between different treatments.

In the case of `CC(C)Cn1c(=O)n(C)c(=O)c2[nH]cnc21` [IBMX, 3-isobutyl-1-methylxanthine], the “cGMP expression, change vs control” value in test [1] is recorded as “increase in cGMP expression”.
On to `COC(=O)[C@@H](N)CCCNC(=N)N[N+](=O)[O-]` [L-NAME, L-N^G-Nitro arginine methyl ester], for which, in test [2], the “reduction of DAX-J2 Orange live cells compared to COMP-4 alone” value is recorded as 46%. Moreover, the “reduction of cGMP expression” value in test [1] (inhibitor alone, L-NAME 3 μM, vs control) is 40%. For the same compound, the “reduction of cGMP expression compared to COMP-4 incubation alone” value in test [1] (L-NAME 3 μM) is on record as 57%.
Turning to `CC(=N)NCCCC[C@H](N)C(=O)O.Cl` [L-NIL, N^6-(1-Iminoethyl)-lysine, hydrochloride], the “cGMP expression, change vs control” value in test [1] is recorded as “no inhibition of cGMP expression”. Besides, in test [1] (L-NAME 3 μM), the “reduction of cGMP expression compared to COMP-4 incubation alone” value was 44%.
